ChEMBL document CHEMBL1201862, “PubChem BioAssay data set” (2004)
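Briefly, cells in 96-well plates were exposed to five compound concentrations for 48 h, and endpoints were estimated by linear interpolation. Abbreviation: GI50, concentration required for 50% inhibition of growth.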 The source made the active and inactive calls. No stated cut-off is given here; in the data, active = GI50 up to about 1.1 µM and inactive = higher.

Columns and labels:
Test in all cases: NCI anticancer screen, dose series, 48 h
[1] = test system: MDA-N
[2] = test system: MOLT-4
[3] = test system: HCC 2998
[4] = test system: DU-145
[5] = test system: UACC-257
[6] = test system: OVCAR-5
[7] = test system: TK-10
[8] = test system: UO-31
[9] = test system: SF-295
[10] = test system: HL-60
[11] = test system: SK-OV-3
[12] = test system: SF-268
[13] = test system: OVCAR-4
[14] = test system: MDA-MB-231
[15] = test system: 786-0
[16] = test system: NCI-H460
[17] = test system: SR
[18] = test system: PC-3
[19] = test system: SN12C
[20] = test system: LOX IMVI
[21] = test system: SW-620
[22] = test system: UACC-62
[23] = test system: NCI/ADR-RES
[24] = test system: RXF 393
[25] = test system: IGROV-1
[26] = test system: HCT-116
[27] = test system: BT-549
[28] = test system: ACHN
[29] = test system: SNB-19
[30] = test system: MCF7
[31] = test system: Hs-578T
[32] = test system: HOP-62
[33] = test system: NCI-H226
[34] = test system: HCT-15
[35] = test system: SF-539
[36] = test system: M14
[37] = test system: A498
[38] = test system: CAKI-1
[39] = test system: SNB-75
[40] = test system: COLO 205
[41] = test system: T47D
[42] = test system: KM12
[43] = test system: OVCAR-8
[44] = test system: SK-MEL-5
[45] = test system: HT-29
[46] = test system: MDA-MB-435
[47] = test system: K562
[48] = test system: SK-MEL-2
[49] = test system: A549
[50] = test system: SK-MEL-28
[51] = test system: HOP-92
[52] = test system: U-251
[53] = test system: OVCAR-3
[54] = test system: NCI-H23
[55] = test system: EKVX
[56] = test system: RPMI-8226
[57] = test system: NCI-H522
[58] = test system: Malme-3M
[59] = test system: CCRF-CEM

Nc1c(/C=C/c2cc3cc(C4=NCCN4)ccc3o2)[nH]c2cc(C3=NCCN3)ccc12
GI50 [1]: 37.8 µM (inactive) | GI50 [2]: 28.9 µM (inactive) | GI50 [3]: 32.4 µM (inactive) | GI50 [4]: 36.1 µM (inactive) | GI50 [5]: 46.7 µM (inactive) | GI50 [6]: > 100 µM (inactive) | GI50 [7]: 31.6 µM (inactive) | GI50 [8]: 40.6 µM (inactive) | GI50 [9]: 34.3 µM (inactive) | GI50 [10]: 29.6 µM (inactive) | GI50 [11]: > 100 µM (inactive) | GI50 [12]: 46.7 µM (inactive) | GI50 [13]: 47.1 µM (inactive) | GI50 [14]: 34.1 µM (inactive) | GI50 [15]: 37.3 µM (inactive) | GI50 [16]: 32.7 µM (inactive) | GI50 [17]: 43.7 µM (inactive) | GI50 [18]: 34.6 µM (inactive) | GI50 [19]: 33.2 µM (inactive) | GI50 [20]: 38.8 µM (inactive) | GI50 [21]: 34.4 µM (inactive) | GI50 [22]: 38 µM (inactive) | GI50 [23]: 76.2 µM (inactive) | GI50 [24]: 43 µM (inactive) | GI50 [25]: 39.1 µM (inactive) | GI50 [26]: 29.4 µM (inactive) | GI50 [27]: 43.6 µM (inactive) | GI50 [28]: 47.1 µM (inactive) | GI50 [29]: 66.2 µM (inactive) | GI50 [30]: 40.7 µM (inactive) | GI50 [31]: > 100 µM (inactive) | GI50 [32]: 34.2 µM (inactive) | GI50 [33]: > 100 µM (inactive) | GI50 [34]: 41.6 µM | GI50 [35]: 40 µM (inactive) | GI50 [36]: 38.5 µM (inactive) | GI50 [37]: > 100 µM (inactive) | GI50 [38]: 38.3 µM (inactive) | GI50 [39]: 63.5 µM (inactive) | GI50 [40]: 41.3 µM (inactive) | GI50 [41]: 46.5 µM (inactive) | GI50 [42]: 34.4 µM (inactive) | GI50 [43]: 38.9 µM (inactive) | GI50 [44]: 30.8 µM (inactive) | GI50 [45]: 34.3 µM (inactive) | GI50 [46]: 33.1 µM (inactive) | GI50 [47]: 41.3 µM (inactive) | GI50 [48]: > 100 µM (inactive) | GI50 [49]: 41.5 µM (inactive) | GI50 [50]: 32 µM (inactive) | GI50 [51]: 99.8 µM (inactive) | GI50 [52]: 38.3 µM (inactive) | GI50 [53]: 35.6 µM (inactive) | GI50 [54]: 60.7 µM (inactive) | GI50 [55]: 40.1 µM (inactive) | GI50 [56]: 39 µM (inactive) | GI50 [57]: 45.9 µM (inactive)

C=CCNC1=C2C[C@@H](C)C[C@@H](OC)[C@H](OC(=O)CCN(C)C)[C@H](C)/C=C(\C)[C@@H](OC(N)=O)[C@H](OC)/C=C\C=C(/C)C(=O)NC(=CC1=O)C2=O
GI50 [1]: 0.0386 µM (active) | GI50 [2]: 1.53 µM (inactive) | GI50 [3]: 0.0641 µM (active) | GI50 [4]: 0.993 µM (active) | GI50 [58]: 0.0643 µM (active) | GI50 [5]: 0.0914 µM (active) | GI50 [6]: 2.18 µM (inactive) | GI50 [7]: 0.0755 µM (active) | GI50 [8]: 0.822 µM (active) | GI50 [9]: 0.134 µM (active) | GI50 [10]: 0.362 µM (active) | GI50 [11]: 0.0327 µM (active) | GI50 [12]: 1.35 µM (inactive) | GI50 [13]: 3.97 µM (inactive) | GI50 [14]: 2.05 µM (inactive) | GI50 [15]: 1.43 µM (inactive) | GI50 [16]: 0.0627 µM (active) | GI50 [17]: 0.0204 µM (active) | GI50 [18]: 0.0386 µM (active) | GI50 [19]: 0.0869 µM (active) | GI50 [20]: 0.0993 µM (active) | GI50 [21]: 0.0578 µM (active) | GI50 [22]: 0.0545 µM (active) | GI50 [23]: 8.51 µM (inactive) | GI50 [24]: 0.182 µM (active) | GI50 [25]: 0.13 µM (active) | GI50 [26]: 0.134 µM (active) | GI50 [27]: 12.9 µM (inactive) | GI50 [28]: 0.875 µM (active) | GI50 [29]: 1.17 µM (inactive) | GI50 [30]: 0.0295 µM (active) | GI50 [31]: 12.1 µM (inactive) | GI50 [32]: 0.044 µM (active) | GI50 [34]: 0.535 µM | GI50 [35]: 0.0562 µM (active) | GI50 [36]: 0.0622 µM (active) | GI50 [37]: 0.297 µM (active) | GI50 [38]: 1.88 µM (inactive) | GI50 [39]: 0.1 µM (active) | GI50 [40]: < 0.0188 µM (active) | GI50 [41]: 1.13 µM (inactive) | GI50 [42]: 0.0342 µM (active) | GI50 [43]: 0.324 µM (active) | GI50 [44]: 0.0508 µM (active) | GI50 [45]: < 0.01 µM (active) | GI50 [46]: 0.053 µM (active) | GI50 [47]: 0.156 µM (active) | GI50 [48]: 0.059 µM (active) | GI50 [49]: 0.0559 µM (active) | GI50 [50]: 0.171 µM (active) | GI50 [51]: 8.41 µM (inactive) | GI50 [59]: 3.09 µM (inactive) | GI50 [52]: 0.203 µM (active) | GI50 [53]: 0.205 µM (active) | GI50 [54]: 0.0547 µM (active) | GI50 [55]: 1.35 µM (inactive) | GI50 [56]: 1.15 µM (inactive) | GI50 [57]: 0.125 µM (active)
